According to US7173026B2, “Pyrrolo [2,1-c][1,4]benzodiazepine-anthraquinone conjugates useful as antitumour agents” (Council of Scientific and Industrial Research, priority 2004, dated 2007):

Key:
Assay type in all cases: cell-based
Conditions in all cases: 48 hours
[1] = tested on: A-549; experiment: In vitro cytotoxicity against human cancer cell lines (sulforhodamine B), A-549
Method: (§1) In vitro cytotoxicity against human cancer cell lines: The human cancer cell lines procured from National Cancer Institute, Frederick, U.S.A or National Center for Cell Science; Pune, India. were used in present study. Cells were grown in tissue culture flasks in complete growth medium (RPMI-1640 medium with 2 mM glutamine, 100 μg/ml streptomycin, pH 7.4, sterilized by filtration and supplemented with 10% fetal calf serum and 100 units/ml penicillin before use) at 37° C. in an atmosphere of 5% CO2 and 90% relative humidity in a carbon dioxide incubator. The cells at subconfluent stage were harvested from the flask by treatment with trypsin (0.5% in PBS containing 0.02% EDTA) for determination of cytotoxicity. Cells with viability of more than 98% as determined by trypan blue exclusion were used for assay. Cell suspension of the required cell density were prepared in complete growth medium with gentamycin (50 μg/ml) for determination of cytotoxicity.
(§2) Stock solutions of (2×10–2 M of test material were prepared in DMSO (Dimethyl sulphoxide). The stock solutions were serially diluted with complete growth medium containing 50 μg/ml of gentamycin to obtain working test solutions of required concentrations.
(§3) In vitro cytotoxicity against human cancer cell lines was determined (Monks, A , Scudiero, D., Skehan, P., Shoemaker R., Paull, K., Vistica, D., Hose, C., Langley, j., Cronise, P., Vaigro-Wolff, A., Gray-Goodrich, M., Campbell, H., Mayo, J and Boyd m.J. Natl. Cancer Inst., 1991, 83, 757–766) using 96-well tissue culture plates. 100 μl of cell suspension was added to each well of the 96-well tissue culture plate. The cells were incubated for 24 hours. Test materials in complete growth medium (100 μl) were added after 24 hours incubation to the wells containing cell suspension. The plates were further incubated for 48 hours (at 37° C. in an atmosphere of […] 90% relative humidity in a carbon dioxide incubator) after addition of test material and then the cell growth was stopped by gently layering trichloroacetic acid (TCA, 50 μl, 50%) on top of the medium in all the wells. The plates were incubated at 4° C. for one hour to fix the cells attached to the bottom of the wells. The liquid of all the wells was gently pipetted out and discarded. The plates were washed five times with distilled water to remove TCA, growth medium low molecular weight metabolites, serum proteins etc and air-dried. Cell growth was measured by staining with sulforhodamine B dye (Skehan et al., 1990). The adsorbed dye was dissolved in Tris-Buffer (100 m l, 0.01M, pH 10.4) and plates were gently stirred for 5 minutes on a mechanical stirrer. The optical density was recorded on ELISA reader at 540 nm.
(§4) The cell growth was calculated by subtracting mean OD value of respective blank from the mean OD value of experimental set. Percent growth in presence of test material was calculated considering the growth in absence of any test material as 100% and in turn percent growth inhibition in presence of test material will be calculated.

[2] = tested on: SiHa; experiment: In vitro cytotoxicity against human cancer cell lines (sulforhodamine B), SiHa
Method: as §1, §2, §3, §4

[3] = tested on: HCT-15; experiment: In vitro cytotoxicity against human cancer cell lines (sulforhodamine B), HCT-15
Method: as §1, §2
as §3, with “The plates were washed five times with distilled water to remove TCA, growth medium low molecular weight metabolites, serum proteins etc and air-dried.” left out, “The adsorbed dye was dissolved in Tris-Buffer (100 m l, 0.01M, pH 10.4) and plates were gently stirred for 5 minutes on a mechanical stirrer.” left out
as §4

[4] = tested on: HOP-62; experiment: In vitro cytotoxicity against human cancer cell lines (sulforhodamine B), HOP-62
Method: as §1, §2
as §3, with “The plates were washed five times with distilled water to remove TCA, growth medium low molecular weight metabolites, serum proteins etc and air-dried.” left out, “The adsorbed dye was dissolved in Tris-Buffer (100 m l, 0.01M, pH 10.4) and plates were gently stirred for 5 minutes on a mechanical stirrer.” left out
as §4

[5] = tested on: HT-29; experiment: In vitro cytotoxicity against human cancer cell lines (sulforhodamine B), HT-29
Method: as §1, §2, §3, §4

[6] = A-549, concentration 10-4 mol/L
[7] = A-549, concentration 10-5 mol/L
[8] = A-549, concentration 10-6 mol/L
[9] = HCT-15, concentration 10-5 mol/L
[10] = HCT-15, concentration 10-6 mol/L
[11] = HOP-62, concentration 10-5 mol/L
[12] = HOP-62, concentration 10-6 mol/L
[13] = HT-29, concentration 10-4 mol/L
[14] = HT-29, concentration 10-5 mol/L
[15] = HT-29, concentration 10-6 mol/L

Row | SMILES | percentage growth inhibition [1, 6] | percentage growth inhibition [1, 7] | percentage growth inhibition [1, 8] | percentage growth inhibition ([2]; concentration 10-4 mol/L) | percentage growth inhibition ([2]; concentration 10-5 mol/L) | percentage growth inhibition ([2]; concentration 10-6 mol/L) | percentage growth inhibition [3, 9] | percentage growth inhibition [3, 10] | percentage growth inhibition [4, 11] | percentage growth inhibition [4, 12] | percentage growth inhibition [5, 13] | percentage growth inhibition [5, 14] | percentage growth inhibition [5, 15]
1 | COc1cc2c(cc1OCCCCC(=O)Nc1cccc3c1C(=O)c1ccccc1C3=O)N=C[C@@H]1CCCN1C2=O [compound Vc, 7-Methoxy-8-[N-(9,10-dihydro-9,10-dioxo-1-anthracenyl)-butane-4-carboxamide]-oxy-(11aS)-1,2,3,11a tetrahydro-5H-pyrrolo [2,1-c][1,4]benzodiazepin-5-one] | 93% | 10% | 56% | 73% | 49% | 40% | 82% | 61% | 97% | 73% | 93% | 87% | 73%
2 | COc1cc2c(cc1OCCCC(=O)Nc1cccc3c1C(=O)c1ccccc1C3=O)N=C[C@@H]1CCCN1C2=O [compound Va, 7-Methoxy-8-[N-(9,10-dihydro-9,10-dioxo-1-anthracenyl)-propane-3-carboxamide]-oxy-(11aS)-1,2,3,11a tetrahydro-5H-pyrrolo[2,1-c][1,4]benzodiazepin-5-one] | 93% | 27% | 47% | 57% | 52% | 41% | 66% | 59% | 90% | 74% | 93% | 86% | 68%
